Results published in patent publication US20120309622A1, “HERBICIDES CONTAINING SUBSTITUTED THIEN-3-YL-SULPHONYLAMINIO(THIO)CARBONYL-TRIAZOLIN(ETHI)ONES” (BAYER INTELLECTUAL PROPERTY GMBH, priority 2001, published 2012).

Key:
Assay type in all cases: in vivo
[1] = system: Alopecurus myosuroides; experiment: Post-emergence test/greenhouse, % damage after three weeks
From the text: (§1) The expected action for a given combination of two herbicides can be calculated as follows (cf. COLBY, S. R.: “Calculating synergistic and antagonistic responses of herbicide combinations”, Weeds 15, pages 20-22, 1967):
(§2) If • X=% damage by herbicide A (active compound of the formula I) at an application rate of p kg/ha and • Y=% damage by herbicide B (active compound of the formula II) at an application rate of q kg/ha and • E=the expected damage of herbicides A+B at an application rate of p+q kg/ha, then
(§3) If the actual damage exceeds the calculated value, the combination has a superadditive effect, that is to say a synergistic effect.
(§4) Test plants are grown under control conditions (temperature and light). Once the plants have reached a height of 5 to 15 cm, the test compound or the combination of test compounds is applied by spraying such that the particular amounts of active compound desired are applied per unit area. The concentration of the spray liquor is chosen so that the particular amounts of active compound desired are applied in 500 litres of water/ha.
(§5) Following the spray application, the plant containers are kept in the greenhouse under constant light and temperature conditions.
(§6) After three weeks, the degree of damage to the plants is rated in % damage in comparison to the development of the untreated control.
(§7) The figures denote: • 0%=no effect (like untreated control) • 100%=total destruction

[2] = system: Cyperus esculentus; experiment: as above
From the text: as §1, §2, §3, §4, §5, §6, §7

[3] = system: Veronica persicaria; experiment: as above
Protocol: as §1, §3
(§8) Test plants are grown under control conditions (temperature and light).
as §5, §6

[4] = system: Digitaria sanguinalis; experiment: as above
From the text: as §1, §2, §3, §4, §5, §6, §7

[5] = system: Bromus secalinus; experiment: as above
Protocol: as §1, §3, §8, §5, §6

[6] = system: Polygonum convolvolus; experiment: as above
[7] = system: Setaria viridis; experiment: as above
From the text: as §1, §2, §3, §4, §5, §6, §7

[8] = system: Lolium perenne; experiment: as above
[9] = system: Cassia tora; experiment: as above
Protocol: as §1, §3, §8, §5, §6

[10] = system: Eriochloa villosa; experiment: as above
[11] = system: Matricaria inodora; experiment: as above
From the text: as §1, §2, §3, §4, §5, §6, §7

[12] = system: Galium aparine; experiment: as above
[13] = system: Xanthium strumarium; experiment: as above
From the text: as §1, §2, §3, §4, §5, §6, §7

[14] = system: Chenopodium album; experiment: as above
From the text: as §1, §2, §3, §4, §5, §6, §7

[15] = system: test plants; experiment: Post-emergence test/greenhouse, % damage after three weeks (further test plants, Tables A-1-30 to A-1-104)
From the text: as §1, §2, §3, §4, §5, §6, §7

[16] = system: Abutilon theophrasti; experiment: Post-emergence test/greenhouse, % damage after three weeks
From the text: as §1, §2, §3, §4, §5, §6, §7

[17] = system: Avena fatua; experiment: as above
From the text: as §1, §2, §3, §4, §5, §6, §7

[18] = system: Viola arvensis; experiment: as above; conditions: 15 g of ai/ha
From the text: as §1, §2, §3, §4, §5, §6, §7

[19] = system: Ipomoea hederacea; experiment: as above
From the text: as §1, §2, §3, §4, §5, §6, §7

[20] = Bromus secalinus, post-emergence, 504 h, 2 g of ai/ha, read-out: Bromus secalinus observed
[21] = Bromus secalinus, post-emergence, 504 h, 4 g of ai/ha, read-out: Bromus secalinus observed
[22] = application rate 125 g of ai/ha

COc1c(Cl)ccc(Cl)c1C(=O)O [dicamba, 3,6-dichloro-2-methoxybenzoic acid, reference compound]
Alopecurus myosuroides observed ([1]; 30 g of ai/ha): 0% | Alopecurus myosuroides observed ([1]; 60 g of ai/ha): 0% | Cyperus esculentus observed ([2]; 30 g of ai/ha): 0% | Cyperus esculentus observed ([2]; 125 g of ai/ha): 0% | Veronica persicaria observed ([3]; 60 g of ai/ha): 40%

COC(=O)c1ccc(C(F)(F)F)nc1S(=O)(=O)NC(=O)Nc1nc(OC)cc(OC)n1.[Na] [flupyrsulfuron, N-(4,6-dimethoxypyrimidin-2-yl)-N′-(3-methoxycarbonyl-6-trifluoromethylpyridin-2-ylsulphonyl)urea sodium salt, reference compound]
Digitaria sanguinalis observed ([4]; 4 g of ai/ha): 20% | pest or weed control at 2 g/ha [5, 20]: 0% | pest or weed control at 4 g/ha [5, 21]: 0% | Polygonum convolvolus observed ([6]; 2 g of ai/ha): 70% | Polygonum convolvolus observed ([6]; 4 g of ai/ha): 80%

COc1nc(NC(=O)NS(=O)(=O)c2ccccc2C(F)(F)F)nc(C(F)(F)F)n1 [tritosulfuron]
Digitaria sanguinalis observed ([4]; 15 g of ai/ha): 30% | Digitaria sanguinalis observed ([4]; 30 g of ai/ha): 40% | Setaria viridis observed ([7]; 30 g of ai/ha): 0% | Lolium perenne observed ([8]; 15 g of ai/ha): 0% | Lolium perenne observed ([8]; 30 g of ai/ha): 0%

CCCOc1nn(C(=O)[N-]S(=O)(=O)c2ccccc2C(=O)OC)c(=O)n1C.[Na+] [propoxycarbazone-sodium]
Cassia tora observed ([9]; 30 g of ai/ha): 30% | Veronica persicaria observed ([3]; 60 g of ai/ha): 40% | Polygonum convolvolus observed ([6]; 30 g of ai/ha): 0% | Polygonum convolvolus observed ([6]; 60 g of ai/ha): 0%

glyphosate
Bromus secalinus observed ([5]; 125 g of ai/ha): 20% | Bromus secalinus observed ([5]; 250 g of ai/ha): 80% | Veronica persicaria observed ([3]; 250 g of ai/ha): 50% | Eriochloa villosa observed ([10]; 250 g of ai/ha): 70%

Cc1cc(Cl)ccc1O[C@@H](C)C(=O)O [mecoprop-P]
Digitaria sanguinalis observed ([4]; 125 g of ai/ha): 40% | Digitaria sanguinalis observed ([4]; 250 g of ai/ha): 70% | Matricaria inodora observed ([11]; 125 g of ai/ha): 0% | Matricaria inodora observed ([11]; 250 g of ai/ha): 0% | Galium aparine observed ([12]; 125 g of ai/ha): 20% | Galium aparine observed ([12]; 250 g of ai/ha): 40%

CSc1nnc(C(C)(C)C)c(=O)n1N [metribuzin]
Matricaria inodora observed ([11]; 30 g of ai/ha): 0% | Xanthium strumarium observed ([13]; 30 g of ai/ha): 40%

flufenacet
Chenopodium album observed ([14]; application rate 30 g of ai/ha): 0% | Chenopodium album observed ([14]; application rate 60 g of ai/ha): 0% | Chenopodium album observed [14, 22]: 0% | Bromus secalinus observed ([5]; application rate 30 g of ai/ha): 0% | Bromus secalinus observed ([5]; application rate 60 g of ai/ha): 20% | Bromus secalinus observed [5, 22]: 40% | Polygonum convolvolus observed ([15]; application rate 30 g of ai/ha): 0% | Polygonum convolvolus observed ([15]; application rate 60 g of ai/ha): 0% | Polygonum convolvolus observed [15, 22]: 0%

CS(=O)(=O)c1ccc(C(=O)C2C(=O)CCCC2=O)c([N+](=O)[O-])c1 [mesotrione]
Alopecurus myosuroides observed ([1]; 15 g of ai/ha): 0% | Alopecurus myosuroides observed ([1]; 30 g of ai/ha): 0% | pest or weed control at 15 g/ha ([5]; Bromus secalinus, post-emergence, 504 h, 15 g of ai/ha, read-out: Bromus secalinus observed): 0% | pest or weed control at 30 g/ha ([5]; Bromus secalinus, post-emergence, 504 h, 30 g of ai/ha, read-out: Bromus secalinus observed): 0% | Polygonum convolvolus observed ([6]; 15 g of ai/ha): 50%

O=C(Nc1ccc(F)cc1)c1cccc(Oc2cccc(C(F)(F)F)c2)n1 [picolinafen]
Cassia tora observed ([9]; 30 g of ai/ha): 70% | Eriochloa villosa observed ([10]; 15 g of ai/ha): 30% | Eriochloa villosa observed ([10]; 30 g of ai/ha): 80% | Lolium perenne observed ([8]; 15 g of ai/ha): 0% | Lolium perenne observed ([8]; 30 g of ai/ha): 20%

COc1nc(C)nc(=NC(=O)NS(=O)(=O)c2ccccc2C(=O)O)[nH]1 [metsulfuron]
Cyperus esculentus observed ([2]; 4 g of ai/ha): 30% | pest or weed control at 2 g/ha [5, 20]: 0% | pest or weed control at 4 g/ha [5, 21]: 0% | Lolium perenne observed ([8]; 2 g of ai/ha): 70%

imazamox
Digitaria sanguinalis observed ([4]; 8 g of ai/ha): 30% | Matricaria inodora observed ([11]; 8 g of ai/ha): 30% | Matricaria inodora observed ([11]; 15 g of ai/ha): 50% | Bromus secalinus observed ([5]; 8 g of ai/ha): 60%

CCS(=O)(=O)c1cccnc1S(=O)(=O)NC(=O)Nc1nc(OC)cc(OC)n1 [rimsulfuron]
Abutilon theophrasti observed ([16]; 4 g of ai/ha): 70% | Avena fatua observed ([17]; 4 g of ai/ha): 70% | Avena fatua observed ([17]; 8 g of ai/ha): 70% | Cassia tora observed ([9]; 4 g of ai/ha): 60% | Cassia tora observed ([9]; 8 g of ai/ha): 80%

COc1nn(C(=O)NS(=O)(=O)c2ccccc2OC(F)(F)F)c(=O)n1C.[Na] [flucarbazone-sodium, 4,5-dihydro-3-methoxy-4-methyl-5-oxo-N-[(2-trifluoromethoxyphenyl)-sulphonyl]-1-H-1,2,4-triazole-1-carboxamide sodium salt, reference compound]
Viola arvensis observed [18]: 30% | Bromus secalinus observed ([5]; 60 g of ai/ha): 70% | Veronica persicaria observed ([3]; 30 g of ai/ha): 20% | Veronica persicaria observed ([3]; 60 g of ai/ha): 60%

thifensulfuron-methyl
Setaria viridis observed ([7]; 15 g of ai/ha): 0% | Bromus secalinus observed ([5]; 8 g of ai/ha): 0% | Bromus secalinus observed ([5]; 15 g of ai/ha): 0% | Eriochloa villosa observed ([10]; 15 g of ai/ha): 10%

COc1cc(OC)nc(NC(=O)NS(=O)(=O)c2cc(NC=O)ccc2C(=O)N(C)C)n1 [foramsulfuron]
Cyperus esculentus observed ([2]; 8 g of ai/ha): 80% | Ipomoea hederacea observed ([19]; 15 g of ai/ha): 80% | Eriochloa villosa observed ([10]; 15 g of ai/ha): 60%

CCOC(=O)C(Cl)Cc1cc(-n2nc(C)n(C(F)F)c2=O)c(F)cc1Cl (stereo not shown) [carfentrazone-ethyl, 2-(4-chloro-2-fluoro-5-(2-chloro-2-ethoxycarbonylethyl)phenyl)-4-difluoromethyl-5-methyl-2,4-dihydro-3H-1,2,4-triazol-3-one, reference compound]
Alopecurus myosuroides observed ([1]; 8 g of ai/ha): 0% | Chenopodium album observed ([14]; 2 g of ai/ha): 0% | Chenopodium album observed ([14]; 4 g of ai/ha): 30% | Chenopodium album observed ([14]; 8 g of ai/ha): 50% | Cyperus esculentus observed ([2]; 4 g of ai/ha): 0% | Cyperus esculentus observed ([2]; 8 g of ai/ha): 30%

COc1cc(OC)nc(NC(=O)NS(=O)(=O)c2ncccc2C(=O)N(C)C)n1 [nicosulfuron]
Eriochloa villosa observed ([10]; 30 g of ai/ha): 90%

COc1cc(OC)n2nc(S(=O)(=O)Nc3c(Cl)ccc(C)c3Cl)nc2n1 [metosulam, N-(2,6-dichloro-3-methylphenyl)-5,7-dimethoxy-1,2,4-tri-azolo[1,5-a]-pyrimidine-2-sulphonamide, reference compound]
Activity against Abutilon theophrasti (%) ([16]; 12.5 g of a.i./ha): 60% | Activity against Abutilon theophrasti (%) ([16]; 25 g of a.i./ha): 70% | Avena fatua observed ([17]; 8 g of ai/ha): 0% | Digitaria sanguinalis observed ([4]; 8 g of ai/ha): 30% | Activity against Xanthium strumarum (%) ([13]; 12.5 g of a.i./ha): 60% | Activity against Xanthium strumarum (%) ([13]; 25 g of a.i./ha): 90% | Veronica persicaria observed ([3]; 4 g of ai/ha): 80%

CCOC(=O)[C@@H](C)Oc1ccc(Oc2nc3ccc(Cl)cc3o2)cc1 [fenoxaprop-(P)-ethyl, reference compound]
Ipomoea hederacea observed ([19]; 30 g of ai/ha): 0% | Bromus secalinus observed ([5]; 8 g of ai/ha): 0% | Bromus secalinus observed ([5]; 15 g of ai/ha): 0% | Bromus secalinus observed ([5]; 30 g of ai/ha): 0% | Veronica persicaria observed ([3]; 8 g of ai/ha): 0% | Veronica persicaria observed ([3]; 15 g of ai/ha): 0% | Veronica persicaria observed ([3]; 30 g of ai/ha): 0%

N#Cc1cc(Br)c(O)c(Br)c1 [bromoxynil, 3,5-dibromo-4-hydroxybenzonitrile, reference compound]
Activity against Chenopodium album (%) ([14]; 250 g of a.i./ha): 80%

COc1ncc(F)c2nc(S(=O)(=O)Nc3c(F)cccc3F)nn12 [florasulam]
Bromus secalinus observed ([5]; 2 g of ai/ha): 30% | Bromus secalinus observed ([5]; 4 g of ai/ha): 30% | Cassia tora observed ([9]; 4 g of ai/ha): 0% | Veronica persicaria observed ([3]; 4 g of ai/ha): 70%

COC(=O)c1cc(Oc2ccc(Cl)cc2Cl)ccc1[N+](=O)[O-] [bifenox, methyl 5-(2,4-dichlorophenoxy)-2-nitrobenzoate, reference compound]
Avena fatua observed ([17]; 60 g of ai/ha): 10% | Avena fatua observed ([17]; 125 g of ai/ha): 10% | Avena fatua observed ([17]; 250 g of ai/ha): 10% | Xanthium strumarium observed ([13]; 60 g of ai/ha): 60% | Xanthium strumarium observed ([13]; 125 g of ai/ha): 60% | Xanthium strumarium observed ([13]; 250 g of ai/ha): 70% | pest or weed control at 60 g/ha ([5]; Bromus secalinus, post-emergence, 504 h, 60 g of ai/ha, read-out: Bromus secalinus observed): 0% | pest or weed control at 125 g/ha ([5]; Bromus secalinus, post-emergence, 504 h, 125 g of ai/ha, read-out: Bromus secalinus observed): 0% | pest or weed control at 250 g/ha ([5]; Bromus secalinus, post-emergence, 504 h, 250 g of ai/ha, read-out: Bromus secalinus observed): 10%
